Laboratory results from US20220105061A1, “COMPOSITIONS AND METHODS FOR TREATING RESPIRATORY INSUFFICIENCY” (The Regents of the University of California, priority 2019, published 2022).
“Also recorded” adds a separate entry of the source.

System: Serpinh1 Prx1-cre conditional KO mice
Experiment: Prenatal 4-PBA treatment of pregnant females in the Serpinh1 Prx1-cre conditional KO (Hsp47-Prx1) lethal osteogenesis imperfecta mouse model
Assay type: in vivo
Settings: for perinatal lethality due to respiratory insufficiency: Hsp47-Prx1 model
Description: Mutations in SERPINH1 (HSP47) cause osteogenesis imperfecta (OI). Patients with mutations in these genes are severely affected by bone fragility and pulmonary dysfunction. Serpinh1 Prx1-cre conditional KO mice were generated. These animals die immediately after birth due to respiratory insufficiency. The Prx1 gene is expressed in lungs' and limbs' mesenchymal lineages, causing phenotypes in both the pulmonary and skeletal system. Right after birth, all affected animals become cyanotic and die.
Animals were treated with 4-PBA. At least 12 pregnant females (SerpinH1−/− crossed with males Serpinh1+/−Prx1 carriers), who were expected to give birth to 25% affected pups (Serpinh1−/−Prx1 positive) were treated with 1 gr/Kg/day of 4-PBA in drinking water since the gestational age of E14 until birth.
Respiratory function was analyzed in treated vs. control animals by cyanotic observations, X-rays, lung floatability test, whole body oxymetry and histology. Multiple dosages were tested: 1, 2 and 5 gr/Kg/day, 1 gr/Kg/day being the minimum dosage to obtain the effect in 100% of individuals. 5 gr/Kg/day was discarded as 2 of 12 treated pups in two independent litters died without presenting the phenotype and showing hematomas. Other pregnancy stages were also tested starting the treatment from E10 to E17.
4-PBA treatment rescue perinatal lethality due to respiratory insufficiency in Hsp47-Prx1 model. A. X-Rays show a dark spot corresponding with air in the lungs in healthy animals (red arrows). […] B. Histological architecture is collapse in mutants (B′) but rescued in 4-PBA treated animals (B″). C. Mutants show cyanotic aspect at birth (C′). This is also rescued in 4-PBA treated animals (C″). D. Oxygen levels are rescued in treated mutants as observed by oxymeter measures right after birth.

Q: How did the “individuals in which the effect was obtained” value (1 gr/Kg/day) turn out when O=C(O)CCCc1ccccc1 [4-PBA, 4-phenylbutyric acid] was run?
A: 100%

Q: What about the “survival of pups with the affected genotype born from treated mothers” value (1 gr/Kg/day in drinking water to pregnant females, E14 until birth, untreated affected pups die immediately after birth) of the same compound?
A: around 24 hours

Q: And the “treated pups that died without presenting the phenotype and showing hematomas” value (5 gr/Kg/day, two independent litters, dosage discarded)?
A: 2 of 12

Q: What about the “perinatal lethality due to respiratory insufficiency” value (prenatal treatment) of the same compound?
A: rescue

Q: And the “perinatal lethality due to respiratory insufficiency” value (prenatal treatment, listed as 4-phenylbutyric)?
A: rescues

Q: What about the lung histological architecture (collapsed in mutants, FIG. 1B) of the same compound?
A: rescued

Q: And the “minimum dosage to obtain the effect in 100% of individuals” value (dosages tested: 1, 2 and 5 gr/Kg/day)?
A: 1 gr/Kg/day

Q: And the embryo viability (mouse, in vivo)?
A: possible decreased embryo viability

Q: What about the “unproductive pregnancies of 4 plugged females” value (mouse, in vivo) of the same compound?
A: two

Q: What about the “cyanosis of treated affected animals” value (prenatal treatment, cyanotic observations at birth) of the same compound?
A: did not become cyanotic; also recorded: rescued

Q: And the “oxygen levels (whole body oxymetry)” value (prenatal treatment, oxymeter measures right after birth)?
A: normal levels of oxygen; also recorded: rescued

Q: What about the “air in the lungs on X-rays” value (treated mutants, FIG. 1A) of the same compound?
A: show air in the lungs

Q: And the lung function improvement (treatments performed between E13 to E17)?
A: observed similarly
